The experiment deals with mTOR pathway. Nature of the experiment: Western blot of P70S6 and pP70S6 in corneal epithelium, disepithelization model (Example 1). In kind it is in vivo, mice. How it is done:
Eight-week-old C57BL6/N (Charles River, Calco, Italy) (WT mice, n=8) and B6.Cg-Tac1tm1Bbm/J (Jackson Laboratories, Bar Harbor, Me., USA) (TAC1-KO mice, n=8) male mice were used in all experiments. Each animal was anesthetized with intraperitoneal injection of tribromoethanol (250 mg/kg) and a topical anesthetic was applied to their ocular surface prior to the surgical procedure. Disepithelization was performed based on the model previously described, using a blunt spatula to scrap the entire corneal epithelium from limbus to limbus. After wounding, eyes were treated with ophthalmic moxifloxacin 1 time/day for 1 week to […]. Fourteen days after disepithelization mice were euthanized using carbon dioxide inhalation and subsequent cervical dislocation. Corneas were collected for immunostaining and western blot analysis. All experimental protocols were approved by the Animal Care and Use Committee of the Istituto di Ricovero e cura a Carattere Scientifico San Raffaele Scientific Institute, in accordance with the ARVO Statement for the Use of Animals in Ophthalmic and Vision Research.
To evaluate the pharmacological inhibition of Substance P, an additional group of mice (WT-FOSA, n=6) received Fosaprepitant 10 mg/mL (IVEMEND, Merck Sharp & Dohme Ltd., Hoddes-don, UK) dissolved in a total volume of 10 μL phosphate-buffered saline (PBS, Sigma-Aldrich, St. Louis, Mo., USA) or 10 μL of vehicle as control, topically four times a day in both eyes for 14 days. The treatments started 1 day after corneal dispepithelization.
For Western Blot analysis, corneal epithelium was isolated after 30 minutes of EDTA treatment (Sigma-Aldrich Corp., St. Louis, Mo., USA) at 37° C. […] Bands were quantified using Image Lab™ software (Version 6.0.1, Bio-Rad Laboratories, Hercules, Calif., USA).
The expression of p70 S6 Kinase (P70S6), phospho-p70 S6 Kinase (pP70S6), and phospho-histone 2-AX (γH2AX) was evaluated by Western Blot, as previously described in section 2.9. […] Bands were quantified using Image J software (National Institutes of Health, Bethesda, Md., USA).
A general note: In western blotting, separated proteins are transferred to a membrane and probed.

Consider `C[C@@H](O[C@H]1OCCN(Cc2nc(=O)n(P(=O)(O)O)[nH]2)[C@H]1c1ccc(F)cc1)c1cc(C(F)(F)F)cc(C(F)(F)F)c1` [Fosaprepitant, [3-{[(2R,3S)-2-[(1R)-1-[3,5-bis(trifluoromethyl)phenyl]ethoxy]-3-(4-fluorophenyl)morpholin-4-yl]methyl}-5-oxo-2H-1,2,4-triazol-1-yl]phosphonic acid], for which the “pP70S6 expression compared to WT (in words)” value (Fosaprepitant 10 mg/mL (WT-FOSA), western blot) is recorded as “significant decrease”. For the same compound, for the setting “Fosaprepitant 10 mg/mL topically four times a day for 14 days (WT-FOSA)”, the “ratio between pP70S6 and P70S6 expression (mTOR pathway activation) compared to WT” value is on record as “significant decrease”. For the same compound, where the note is “Fosaprepitant 10 mg/mL topically four times a day for 14 days (WT-FOSA), p<0.05”, the “decrease in pP70S6 expression compared to WT” value is 38%.
